Results: patent US10966999B2, “3′3′ cyclic dinucleotides with phosphonate bond activating the sting adaptor protein” (INSTITUTE OF ORGANIC CHEMISTRY AND BIOCHEMISTRY ASCR, V.V.I., priority 2017, dated 2021)

Key:
[1] = target: T1, human wild type STING (WT STING) (Homo sapiens, UniProt Q86WV6, H232R); experiment: Digitonin assay using 293T wtSTING-FL reporter cells; type: cell-based; conditions: 293T wtSTING-FL cells; ISRE firefly luciferase reporter; 30 min in Digitonin buffer, then 5 hours; 8-point dose-response curve
T1 construct: host or cells: 293T (ATCC CRL-3216), stably transfected, with a 4xISRE firefly luciferase reporter
Source text: ISRE Reporter Plasmid (pGL64.27-4×ISRE)
Two complementary oligonucleotides of the sequence […] […] […] […] […] The oligonucleotides were mixed in equal molar amounts, hybridized, and cleaved by restriction endonucleases HindIII (cat. #. R0104S, NEB, Ipswich, USA) and BglII (cat. #R0144S, NEB, Ipswich, USA). Ultimately, they were ligated into plasmid pGL4.27 (cat. #E6651, Promega, Madison, USA) linearized with the same enzymes. As result the sequence with four ISRE sites was placed upstream of the minimum promoter of firefly luciferase reporter gene.
After 5 minutes incubation at room temperature (RT), 250 μL of the mixture was added dropwise to the cells in one well. Cells were incubated 36 hours at 37° C. with 5% CO2, and then detached with 0.05% Trypsin and 0.22 g/L EDTA (both cat. #L0941, Biowest, Riverside, USA).
Transfected cells were seeded onto poly-D-lysine coated six well plates at density 50,000 cells per 1 cm^2 in DMEM medium with high glucose containing 10% heat inactivated FBS, 30 μg/mL blasticidin (cat. #ant-bl-05, InvivoGen, San Diego, USA), 0.06 mg/ml Penicillin G and 0.1 mg/ml Streptomycin Sulfate (both cat. #. L0018, Biowest, Riverside, USA). The medium was replenished every 3-4 days until visible colonies of cells resistant to blasticidin were formed.
Blasticidin resistant cells stably expressing WT STING were further transfected with pGL64.27-4×ISRE plasmid following the same procedure as described above. […] Homogeneous culture of stably double transfected cells was prepared by limiting dilution of cells in 96 well plates and wells with cells were selected that originated from a single cell.
The medium was removed next day and three fold serial dilutions of compounds in Digitonin buffer containing 50 mmol·l^−1 HEPES (cat. #H3375, Sigma Aldrich, Czech Republic) pH 7.0, 100 mmol·l^−1 KCl, 3 mmol·l^−1 MgCl2, 0.1 mmol·l^−1 DTT (cat. #D0632, Sigma Aldrich, Czech Republic), 85 mmol·l^−1 Sucrose (cat. #S7903, Sigma Aldrich, Czech Republic), 0.2% BSA (cat. #A2153, Sigma Aldrich, Czech Republic), 1 mmol·l^−1 ATP (cat. #A1852, Sigma Aldrich, Czech Republic), 0.1 mmol·l^−1 GTP (cat. #G8877, Sigma Aldrich, Czech Republic), and 10 μg/mL Digitonin A (cat. #D141, Sigma Aldrich, Czech Republic) were added to the cells. The buffer was removed after 30 minutes incubation at 37° C. with 5% CO2, the cells were washed once with 100 μl of cultivation medium, and 100 μl of medium was added to each well. The plates with cells were incubated for 5 hours at 37° C. with 5% CO2, 50 μl of the medium was removed and 30 μl of ONE-Glo™ Luciferase Assay System reagent (cat. #E6120, Promega, Madison, USA) was added to each well. Luminescence was read on Synergy H1 (Biotek, Winooski, USA).

AQ STING (G230A-R293Q) = target: T2, AQ STING (G230A-R293Q) (Homo sapiens, UniProt Q86WV6, G230A/H232R/R293Q); experiment: Differential Scanning Fluorimetry (DSF) with AQ STING; type: binding; conditions: thermal shift vs STING apoprotein; 150 μM CDN; 0.1 mg/ml protein; SYPRO Orange
T2 construct: encoded truncated human WT STING or AQ STING (amino acid residues 140-343) with N-terminal 8×His and SUMO tag; 8xHis-SUMO (N, cleaved yes); made in house; host or cells: E. coli Rosetta-gami B (DE3)
Experimental: (§1) WT STING and AQ STING Proteins
(§2) Purified PCR products were cleaved with restriction enzymes BamHI (cat. #R0136S, NEB, Ipswich, USA) and NotI (cat. #R0189S, NEB, Ipswich, USA) and cloned into the pSUMO vector linearized with the identical enzymes.
(§3) DNase I (cat. #D5025, Sigma Aldrich, Czech Republic) and RNase A (cat. #R6513, Sigma Aldrich, Czech Republic) were added (final concentration 50 μg/ml) together with MgCl2 (final concentration 5 mmol·l^−1) to the homogenate and bacteria were lysed using French Press G-M™ High-Pressure Cell Press Homogenizer (1500 psi, 3 cycles). […] The resin was poured into a chromatography column, washed with 50 ml buffer A (50 mmol·l^−1 TrisCl (pH 8.0), 800 mmol·l^−1 NaCl, 3 mmol·l^−1 3-mercaptol; 10% glycerol; 20 mmol·l^−1 imidazole) and 8-His-SUMO tagged STING proteins were eluted with 15 ml buffer A containing 300 mmol·l^−1 imidazole. […] Proteins were concentrated with Amicon® Ultra-15 10 K device (cat. #UFC901008, Merck Millipore, Billerica, USA) and flash frozen in liquid N2.
(§4) Differential Scanning Fluorimetry (DSF) with WT STING and AQ STING
(§5) 20 μL solutions of the reaction mixtures were pipetted in triplicates into 96 well optical reaction plates and thermal denaturation of samples were performed on real time PCR cycler (LightCycler R 480 Instrument II—Roche, Basel, Switzerland). The first derivative of the thermal denaturation curves was performed to calculate denaturing temperatures of STING-CDN complexes and STING apoproteins. The thermal shift for each CDN was calculated by subtracting the average denaturing temperature of STING apoprotein from the average denaturing temperature of STING CDN complex.

WT STING = target: T3, WT STING (Homo sapiens, UniProt Q86WV6, H232R); experiment: Differential Scanning Fluorimetry (DSF) with WT STING; type: binding; conditions: thermal shift vs STING apoprotein; 150 μM CDN; 0.1 mg/ml protein; SYPRO Orange
T3 construct: encoded truncated human WT STING or AQ STING (amino acid residues 140-343) with N-terminal 8×His and SUMO tag; 8xHis-SUMO (N, cleaved yes); made in house; host or cells: E. coli Rosetta-gami B (DE3)
Experimental: as §1, §2, §3, §4, §5

T1 sequence (Q86WV6 whole entry H232R): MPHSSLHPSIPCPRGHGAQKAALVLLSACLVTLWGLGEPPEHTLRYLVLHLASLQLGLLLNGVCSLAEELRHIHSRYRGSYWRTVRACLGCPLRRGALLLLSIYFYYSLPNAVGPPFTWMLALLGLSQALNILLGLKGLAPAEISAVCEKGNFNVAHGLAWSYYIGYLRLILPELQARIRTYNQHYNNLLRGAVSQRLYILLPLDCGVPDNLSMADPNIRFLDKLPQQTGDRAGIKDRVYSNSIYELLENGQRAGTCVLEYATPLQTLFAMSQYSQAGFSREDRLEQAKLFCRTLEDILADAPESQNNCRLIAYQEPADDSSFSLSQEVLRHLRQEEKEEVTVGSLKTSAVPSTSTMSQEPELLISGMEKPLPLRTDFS
T3 sequence (Q86WV6 140-343 H232R): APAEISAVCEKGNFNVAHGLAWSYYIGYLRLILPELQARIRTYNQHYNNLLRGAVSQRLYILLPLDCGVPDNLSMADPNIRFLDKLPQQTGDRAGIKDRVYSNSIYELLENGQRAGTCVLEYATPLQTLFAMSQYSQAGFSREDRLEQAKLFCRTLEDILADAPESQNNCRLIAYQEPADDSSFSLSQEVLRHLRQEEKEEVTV
T2 sequence (Q86WV6 140-343 G230A/H232R/R293Q): as the sequence (Q86WV6 140-343 H232R) above, with G91A, R154Q counted along it

Compound | EC50 [1] | ΔTm at 150 µM (AQ STING (G230A-R293Q)) | ΔTm at 150 µM (WT STING)
CSc1nc(N)nc2c1ncn2[C@@H]1O[C@@H]2COP(=O)(O)OC3C(O)[C@H](n4cnc5c(N)ncnc54)O[C@@H]3OCP(=O)(O)OC2C1O (stereo partly drawn) [Compound 45] | 20.8 µM | 1.1 °C | 0 °C
Nc1nc2c(ccn2[C@@H]2O[C@@H]3COP(=O)(O)OC4C(O)[C@H](n5cnc6c(N)ncnc65)O[C@@H]4OCP(=O)(O)OC3C2O)c(=O)[nH]1 (stereo partly drawn) [Compound 43] | 4.7 µM | 3.3 °C | 0.6 °C

The remaining compounds from weak to strong by EC50 [1], led by results:

EC50 [1] | ΔTm at 150 µM (AQ STING (G230A-R293Q)) | ΔTm at 150 µM (WT STING) | Compound
7.5 µM | 2.1 °C | 0.4 °C | Nc1nc(Cl)c2ncn([C@@H]3O[C@@H]4COP(=O)(O)OC5C(O)[C@H](n6cnc7c(N)ncnc76)O[C@@H]5OCP(=O)(O)OC4C3O)c2n1 (stereo partly drawn) [Compound 40]
2.4 µM | 9 °C | 2.3 °C | Nc1nc2c(ncn2[C@@H]2O[C@@H]3COCP(=O)(O)OC4C(F)[C@H](n5cnc6c(N)ncnc65)O[C@@H]4COP(=O)(O)OC3C2O)c(=O)[nH]1 (stereo partly drawn) [Compound 35, 2-amino-9-((2R,3R,3aS,7aR,9R,10R,10aR,15aR)-9-(6-amino-9H-purin-9-yl)-10-fluoro-3,5,12-trihydroxy-5,12-dioxidodecahydro-2H-difuro[2,3-e:2′,3′-l][1,3,7,10]tetraoxa[2,8]diphosphacyclotridecin-2-yl)-1,9-dihydro-6H-purin-6-one]
0.06 µM | 12.2 °C | 3.9 °C | Nc1nc2c(nnn2[C@@H]2O[C@@H]3OCP(=O)(O)OC4C(O)[C@H](n5cnc6c(N)ncnc65)O[C@@H]4COP(=O)(O)OC3C2O)c(=O)[nH]1 (stereo partly drawn) [Compound 54]
